{"source": "ChEMBL document CHEMBL1127962", "about": "“Investigation of the effects of synthetic, non-cytotoxic immunophilin inhibitors on MDR” (1994)", "key": {"[1]": {"target": "Peptidyl-prolyl cis-trans isomerase FKBP1A (Homo sapiens) (UniProt P62942)", "sequence (P62942 whole entry)": "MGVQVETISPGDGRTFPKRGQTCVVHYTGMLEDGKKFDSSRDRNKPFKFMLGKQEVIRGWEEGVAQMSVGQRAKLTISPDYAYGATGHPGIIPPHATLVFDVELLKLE", "test": "In vitro inhibition of non-cytotoxic immunophilin FK506 binding protein activity"}, "[2]": {"test_system": "KB", "test": "In vitro reversal of multidrug resistance (MDR) in human carcinoma cell line", "assay_type": "functional"}}}
{"smiles": "COc1cccc(C(=O)CN2CCCCC2C(=O)N[C@@H](Cc2ccccc2)C(=O)OC(C)(C)C)c1", "note": "(some centres undefined)", "values": [{"measurement": "Activity", "setting": "[1]", "result": 3, "unit": "µM"}, {"measurement": "Activity", "setting": "[2]", "result": ">50", "unit": "µM"}]}
{"smiles": "CCC(C)C[C@H](NC(=O)C1CCCCN1CC(=O)c1cccc(OC)c1)C(=O)OC(C)(C)C", "note": "(some centres undefined)", "values": [{"measurement": "Activity", "setting": "[1]", "result": 8, "unit": "µM"}, {"measurement": "Activity", "setting": "[2]", "result": ">50", "unit": "µM"}]}
{"smiles": "COc1cccc(C(=O)CN2CCCCC2C(=O)N[C@@H](Cc2ccccc2)C(=O)N[C@H](C(=O)OC(C)(C)C)C(C)C)c1", "note": "(some centres undefined)", "values": [{"measurement": "Activity", "setting": "[1]", "result": 3, "unit": "µM"}, {"measurement": "Activity", "setting": "[2]", "result": 6, "unit": "µM"}]}
{"smiles": "C=CCOC/C=C/[C@@H](NC(=O)[C@H](Cc1ccccc1)NC(=O)C1CCCCN1CC(=O)c1cccc(OC)c1)C(C)C", "note": "(some centres undefined)", "values": [{"measurement": "Activity", "setting": "[1]", "result": 3, "unit": "µM"}, {"measurement": "Activity", "setting": "[2]", "result": 6, "unit": "µM"}]}
{"smiles": "COc1cccc(C(=O)CN2CCCCC2C(=O)N[C@@H](Cc2ccccc2)C(=O)N[C@H](/C=C/I)C(C)C)c1", "note": "(some centres undefined)", "values": [{"measurement": "Activity", "setting": "[1]", "result": 2, "unit": "µM"}, {"measurement": "Activity", "setting": "[2]", "result": 30, "unit": "µM"}]}
{"smiles": "COC(=O)[C@H](Cc1ccccc1)NC(=O)[C@@H](NC(=O)[C@H](Cc1ccccc1)NC(=O)C1CCCCN1CC(=O)c1ccc2ccccc2c1)C(C)C", "note": "(some centres undefined)", "values": [{"measurement": "Activity", "setting": "[1]", "result": 0.3, "unit": "µM"}, {"measurement": "Activity", "setting": "[2]", "result": ">50", "unit": "µM"}]}
{"smiles": "C[C@H](/C=C/c1ccc(C(=O)C(=O)N2CCCC2C(=O)OC(C)(C)C)s1)CO", "note": "(some centres undefined)", "values": [{"measurement": "Activity", "setting": "[1]", "result": "> 100", "unit": "µM"}, {"measurement": "Activity", "setting": "[2]", "result": ">50", "unit": "µM"}]}
{"smiles": "C[C@H](/C=C/c1ccc(C(=O)C(=O)N2CCCC2C(=O)N[C@@H](Cc2ccccc2)C(=O)OC(C)(C)C)s1)CO", "note": "(some centres undefined)", "values": [{"measurement": "Activity", "setting": "[1]", "result": 100, "unit": "µM"}, {"measurement": "Activity", "setting": "[2]", "result": ">50", "unit": "µM"}]}
{"smiles": "C=CCC(CC(C)C[C@H](C)C[C@H](OC)C1OC(O)(C(=O)C(=O)N2CCCCC2)[C@H](C)C[C@@H]1OC)C(=O)C[C@H](O)[C@@H](C)[C@H](OC(C)=O)C(C)CC1CC[C@@H](O)C(OC)C1", "note": "(some centres undefined)", "values": [{"measurement": "Activity", "setting": "[1]", "result": 0.001, "unit": "µM"}, {"measurement": "Activity", "setting": "[2]", "result": 5, "unit": "µM"}]}
{"smiles": "COc1cccc(C(=O)CN2CCCCC2C(=O)N[C@@H](Cc2ccccc2)C(=O)N[C@H](/C=C/COC(=O)C(F)(F)F)C(C)C)c1", "note": "(some centres undefined)", "values": [{"measurement": "Activity", "setting": "[1]", "result": 1, "unit": "µM"}, {"measurement": "Activity", "setting": "[2]", "result": 49, "unit": "µM"}]}
{"smiles": "COc1cccc(C(=O)CN2CCCCC2C(=O)N[C@@H](Cc2ccccc2)C(=O)N[C@@H](CC(C)C)C(=O)OC(C)(C)C)c1", "note": "(some centres undefined)", "values": [{"measurement": "Activity", "setting": "[1]", "result": 6, "unit": "µM"}, {"measurement": "Activity", "setting": "[2]", "result": 7, "unit": "µM"}]}
{"smiles": "COc1cccc(C(=O)CN2CCCCC2C(=O)N[C@@H](Cc2ccccc2)C(=O)N[C@H](/C=C/COC(C)=O)C(C)C)c1", "note": "(some centres undefined)", "values": [{"measurement": "Activity", "setting": "[1]", "result": 2, "unit": "µM"}, {"measurement": "Activity", "setting": "[2]", "result": ">50", "unit": "µM"}]}
{"smiles": "C#C[C@@H](NC(=O)[C@H](Cc1ccccc1)NC(=O)C1CCCCN1CC(=O)c1cccc(OC)c1)C(C)C", "note": "(some centres undefined)", "values": [{"measurement": "Activity", "setting": "[1]", "result": 5, "unit": "µM"}, {"measurement": "Activity", "setting": "[2]", "result": 11, "unit": "µM"}]}
{"smiles": "COC(=O)C(=O)N1CCCC1C(=O)N[C@@H](Cc1ccccc1)C(=O)OC(C)(C)C", "note": "(some centres undefined)", "values": [{"measurement": "Activity", "setting": "[1]", "result": "> 50", "unit": "µM"}, {"measurement": "Activity", "setting": "[2]", "result": ">50", "unit": "µM"}]}
{"smiles": "CC(C)[C@H](NC(=O)[C@H](Cc1ccccc1)NC(=O)C1CCCCN1CC(=O)c1ccc2ccccc2c1)C(=O)OC(C)(C)C", "note": "(some centres undefined)", "values": [{"measurement": "Activity", "setting": "[1]", "result": 1, "unit": "µM"}, {"measurement": "Activity", "setting": "[2]", "result": 5, "unit": "µM"}]}
{"smiles": "COC(=O)[C@H](Cc1ccccc1)NC(=O)[C@@H](NC(=O)[C@H](Cc1ccccc1)NC(=O)C1CCCCN1CC(=O)c1cccc(OC)c1)C(C)C", "note": "(some centres undefined)", "values": [{"measurement": "Activity", "setting": "[1]", "result": 1, "unit": "µM"}, {"measurement": "Activity", "setting": "[2]", "result": ">50", "unit": "µM"}]}
{"smiles": "C[C@H](/C=C/c1ccc(C(=O)C(=O)N2CCCC2C(=O)N[C@@H](CC2CCCCC2)C(=O)OC(C)(C)C)s1)CO", "note": "(some centres undefined)", "values": [{"measurement": "Activity", "setting": "[1]", "result": "> 100", "unit": "µM"}, {"measurement": "Activity", "setting": "[2]", "result": 13, "unit": "µM"}]}
